In patent US20120003298A1, “METHODS FOR INDUCING AN IMMUNE RESPONSE” (priority 2010, published 2012):
Where two headings read alike, the source gives them in different places.

Legend:
[1] = Solubility observations in the text; conditions: methanol, ethanol, dichloromethane, ethyl acetate, acetonitrile, acetone, chloroform
[2] = Solubility, method of the European Pharmacopoeia 6.0; assay type: physicochemical
Description: The method reported in the European Pharmacopoeia 6.0 was used.
Batch CH730/16/8g was tested according to the method described in E. Ph: DMSO was added in 0.1 mL portions to 103.7 mg of product and the suspension was shaken with a Vortex instrument for 3 min after each addition.
The batches CH730/16/8c, CH730/16/8g and CH730/23/8e were then tested stirring each suspension for a longer time; 100 mg of each batch dissolved completely in 0.2 mL of DMSO after stirring for 30 minutes.

[3] = tested on: mouse macrophage cell line Raw264.7; experiment: IL-6 and TNF-alpha secretion in Raw264.7 cells (Model 1), ELISA; assay type: cell-based; conditions: for EC50: Raw 264.7, 24 hours, 7 doses
[4] = tested on: PBMCs; experiment: IL-6 and TNF-alpha secretion in PBMC model (Model 2), ELISA; assay type: cell-based, human; conditions: Homo sapiens, PBMC
[5] = Metabolic profiling in rabbit plasma, LC/MS/MS; assay type: in vitro ADME
Description: (§1) Before the analysis of the incubated samples, compound A was infused manually to understand parent fragmentation. Infusion was performed by diluting a 50 mM solution in DMSO to 1 μM with ACN/MeOH 1/1. Sample solution was infused into the ion trap source at a flow rate of 4 μl/min.
(§2) Incubated samples were analyzed on a HPLC (Waters) interfaced with an Ion Trap HCT ultra (Bruker Daltonics).
(§3) Assignment of the structures was done by comparison of the MS/MS analysis of the spectra with the parent spectrum.
(§4) Metabolic profiling was studied in rabbit and human plasma. In both matrixes the parent compound (50 uM starting concentration) was totally metabolized at the last time point. Metabolites were detected in Full scan and peaks were assigned by MH+ and MS/MS spectra.

[6] = Metabolic profiling in human plasma, LC/MS/MS; assay type: in vitro ADME
Description: as §1, §2, §3, §4

[7] = tested on: human whole blood; experiment: Cytokine secretion in human whole blood assay, ELISA; assay type: cell-based; conditions: Homo sapiens
Description: Before drawing the blood, the compounds were added to 96 well round bottom plates in a 10× diluted sample at 20 ul. The compounds were diluted in RPMI media without serum but with antibiotics. Antibiotics were added at a 10× concentration. After drawing the blood, the whole blood sample was gently mixed to obtain a homogeneous sample, and 180 ul was added to each well.
All compounds were setup in concentrations at 0-0.01-0.03-0.1-0.5-2.0-10.0 micromolar as the final concentration. Vehicle control was DMSO control, where we used the highest concentration used for the compounds. After addition of blood, all plates were gently agitated at 37° C. and 5% CO2 until harvest.
For the 6 hours time point, the plate was centrifuged 500×g. Supernatant (SN) was transferred to a tube and centrifuged at 10.000×g for 10 min to get rid of cells and protein aggregates. The clarified supernatant was frozen at −80° C. until analysis.
The SN was removed to another tube and centrifuged at 10.000×g for 10 min. to get rid of aggregates etc. The clarified supernatant was frozen at −80° C. until analysis.
Concentrations of cytokines were determined by ELISA from R&D Systems. The results were analyzed in Graph Pad Prism in order to prepare dose-response
curves, and for determination of EC50 values. FACS analysis was made by using Becton-Dickinson FACSDiva software and subsequently illustrated in Graph Pad Prism.

[8] = tested on: recombinant antigens from Plasmodium falciparum and Mycobacterium ulcerans; experiment: Pilot immunization study with adjuvanted recombinant protein antigens; assay type: in vivo, mouse; conditions: subcutaneous, 10 nMol
Description: A pilot immunization study was conducted using Compound A and SC12 adjuvanted protein antigens. The immunization experiments were performed with two recombinant proteins expressed in E. coli. One antigen was derived from the malaria parasite Plasmodium falciparum and the other one from Mycobacterium ulcerans, which cause the ulcerative skin disease Buruli ulcer.

[9] = tested on: RAW.264 cells; experiment: Intracellular uptake in RAW.264 cells, LC-MS; assay type: in vitro ADME; conditions: 10 microM
Description: 5×10^6 RAW.264 cells were adhered overnight in 10 cm tissue culture dishes. […] […] Supernatant (2 ml) and cells (pellets) were collected by trypsinization and frozen at […] for subsequent analysis by LC-MS.

[10] = Stability on storage by HPLC (solid or chloroform solution; temperature, light)
Description: At this point, a stability study was conducted on batch CH730/16/8g.
The samples were analyzed at t=0 and after 20 days.

[11] = tested on: human PBMCs; experiment: IL-6 secretion in human PBMCs, two batches of Compound A and SC12 (Example 4); assay type: cell-based; conditions: PBMCs, 10-1-0.1-0.01 micromolar
Description: PBMCs were purified from two donors and plated into 96 well plates at 2×10^5 cells/well in RPMI media including human 2% heat inactivated AB serum, glutamine, Pen-strep and β-mercaptoethanol. The cells were treated with TLR7 agonists for 24 h in 4 doses. The conditioned media was removed for ELISA analyses for IL-6, and the EC50 value determined for each compound and each batch.
All compounds were tested in four concentrations (10-1-0.1-0.01 micromolar).
Concentrations of IL-6 were determined by ELISA from R&D Systems using the Microsoft Excel software. The results were analyzed in Graph Pad Prism in order to prepare dose-response curves, and for determination of EC50 values.

[12] = tested on: HLA-DR+/CD20+ B cells; experiment: FACS, B cell activation in whole blood; assay type: cell-based, human; conditions: 24 hours; 2 and 10 uM
Description: B-cells: HLA-DR/CD20/CD40
The FACS staining was performed according to the manufacturer's instructions. Lysis of red blood cells was performed before FACS staining in order to minimize auto-florescence. To include as many B cells and DCs in the study as possible the FACS analyses were performed on 500,000 cells in total for each staining. […] The results of the individual analysis were present as Mean Fluorescence Intensity (MFI) values, for certain activation marker in a given gate setting, represent the actual cell subset. The isotype background values have been used to set the gates so that a maximum at 2% of unspecific stained cells could be found in the positive gates.
The analysis of expression of the activation marker CD40 on B cells was made on double positive HLA-DR (MHC class II) (P4 gate) and CD20 cells (B cell marker) (P8 gate).

[13] = tested on: myeloid CD11c+/CD123− DCs; experiment: FACS, myeloid DC activation in whole blood; assay type: cell-based, human; conditions: 24 hours; 0.1 and 0.5 uM
Description: The FACS analysis for donor 1 and donor 2 was made on another day than donor 3. The compound concentrations were as follows:
B cell activation: 2 and 10 uM mDC/pDC: 0.1 and 0.5 uM
The FACS analysis was used to identify whether the test compounds could induce activation of B cells, and two different subsets of dendritic cells, namely the myeloid CD11c+/CD123− DCs and the plasmacytoid CD11c−/CD123+DCs. The following markers were studied to identify the activation status of the different subsets:
The FACS staining was performed according to the manufacturer's instructions. Lysis of red blood cells was performed before FACS staining in order to minimize auto-florescence. To include as many B cells and DCs in the study as possible the FACS analyses were performed on 500,000 cells in total for each staining. A P1 gate was set only to include relevant cells on FSC vs. SSC (see FIGS. 12-15). The results of the individual analysis were present as Mean Fluorescence Intensity (MFI) values, for certain activation marker in a given gate setting, represent the actual cell subset. The isotype background values have been used to set the gates so that a maximum at 2% of unspecific stained cells could be found in the positive gates.
The analysis of myeloid DCs was based on HLA-DR+/CD11c+/CD123-cells, thus all analyzed cells was included in the HLA-DR+(P3) gate and CD11c+/CD123− (Q4) gate (see gates in FIGS. 13-15).

[14] = Intrabladder application, serum cytokines (Luminex) and histology; assay type: in vivo, mouse; conditions: day 0, 2 hour time point; intravesical about 207 nmoles in 50 μl
Description: Female C57BU6 mice were anesthetized with ketamine/xylazine. The 50 microliter formulated compounds were intravesically administered for twenty minutes at each treatment. The treatment schedule and doses are in Table 35 and 36, respectively. The levels of cytokines (IL-6, IL-12, and TNF-alpha) were determined by Luminex assay. Paraffin sections were prepared and H & E staining performed.

[15] = tested on: MB49 cells; experiment: Mouse bladder cancer model, intravesical treatment (Experiment 24); assay type: in vivo; conditions: Experiment 1; in Phosal 50, 50 microliters, 20 minutes; 2 h and 24 h
Description: A set of experiments was conducted with SC12 in various solutions, in a mouse bladder cancer model.
7-9 week old C57BU6 mice were implanted with 1×10^6 MB49 cells after 0.1% poly L lysine treatment on day 0. […] On day 11, mice were sacrificed and organs were harvested.

[16] = tested on: Cutaneous Squamous Cell Carcinoma (SCC) cell lines SCL-I, SCL-II, SCC-12, SCC-13; conditions: FIG. 11
Description: SCC cells are grown under standard conditions (10% FBS).
Time and dose dependency of effects on total cell numbers have been investigated by real-time cell analysis, which is based on continuous monitoring of electric conductance in microtiter wells (E-plates, Roche), which corresponds to the cell numbers. […] For these assays 4 cell lines may be used to obtain a representative overview on the effects on SCC cells.

[17] = tested on: AY-27 rat bladder cancer cell-line; experiment: Orthotopic rat bladder cancer model, intravesical instillation

COCCOc1nc(N)c2[nH]c(=O)n(Cc3ccc(C(=O)O)cc3)c2n1 [Compound 7, 4-((6-amino-2-(2-methoxyethoxy)-8-oxo-7H-purin-9(8H)-yl)methyl)benzoic acid]
solubility in common solvents [1]: not soluble in most of the common solvents

CCCCCCCC/C=C\CCCCCCCC(=O)OCC(COP(=O)(O)OCCNC(=O)c1ccc(Cn2c(=O)[nH]c3c(N)nc(OCCOC)nc32)cc1)OC(=O)CCCCCCC/C=C\CCCCCCCC (centres unmarked) [Compound A, 2-(4-((6-amino-2-(2-methoxyethoxy)-8-oxo-7H-purin-9(8H)-yl)methyl)benzamido)ethyl 2,3-bis(oleoyloxy)propyl phosphate]
solubility in DMSO [2]: soluble | solubility ([2]; chloroform, organic solvent or mixture, thermodynamic from solid): 100 mg/mL | solubility at 3 min ([2]; organic solvent or mixture, thermodynamic from solid, batch Ch730/16/8g, DMSO added in 0.1 mL portions, Vortex 3 min after each addition): 259 mg/mL | solubility at 30 min ([2]; organic solvent or mixture, thermodynamic from solid, three batches, 100 mg in 0.2 mL of DMSO after stirring for 30 minutes): 500 mg/mL | EC50 ([3]; Mus musculus, RAW264.7, read-out: EC 50 IL 6): 6 nM | EC50 ([3]; Mus musculus, RAW264.7, read-out: EC 50 TNF-alpha): 9 nM | EC50 ([4]; 24 hours, read-out: TNF-alpha secretion, Donor 1 MC50): 644 nM | EC50 ([4]; 24 hours, read-out: TNF-alpha secretion, Donor 2 MC50): 665 nM | EC50 ([4]; 24 hours, read-out: TNF-alpha secretion, Donor 3 MC50): 639 nM | EC50 ([4]; average of three donors, read-out: IL-6 secretion, Average EC50): 485 nM | EC50 ([4]; average of three donors, read-out: TNF-alpha secretion, Average EC50): 650 nM | metabolism in plasma [5]: highly metabolized by esterases | metabolism in plasma [6]: highly metabolized by esterases | EC50 ([7]; 6 h, read-out: EC50-IFN-alpha, 6 h Incubation, Donor 1, whole blood): 1170 nM | EC50 ([7]; 6 h, read-out: EC50-IFN-alpha, 6 h Incubation, Donor 2, whole blood): 1840 nM | EC50 ([7]; 6 h, read-out: EC50-IFN-alpha, 6 h Incubation, Donor 3, whole blood): 1940 nM | EC50 ([7]; 6 h, read-out: EC50-IL-6, 6 h Incubation, Donor 1, whole blood): 940 nM | EC50 ([7]; 6 h, read-out: EC50-IL-6, 6 h Incubation, Donor 2, whole blood): 630 nM | EC50 ([7]; 6 h, read-out: EC50-IL-6, 6 h Incubation, Donor 3, whole blood): 520 nM | EC50 ([7]; 6 h, read-out: EC50-IL-12, 6 h Incubation, Donor 1, whole blood, IL-12p40): 2310 nM | EC50 ([7]; 6 h, read-out: EC50-IL-12, 6 h Incubation, Donor 2, whole blood, IL-12p40): 2090 nM | EC50 ([7]; 6 h, read-out: EC50-IL-12, 6 h Incubation, Donor 3, whole blood, IL-12p40): 3430 nM | EC50 ([7]; 24 h, read-out: EC50-IFN-alpha, 24 h Incubation, Donor 1): 240 nM | EC50 ([7]; 24 h, read-out: EC50-IFN-alpha, 24 h Incubation, Donor 2): 470 nM | EC50 ([7]; 24 h, read-out: EC50-IFN-alpha, 24 h Incubation, Donor 3): 350 nM | EC50 ([7]; 24 h, read-out: EC50-IL-6, 24 h Incubation, Donor 1): 520 nM | EC50 ([7]; 24 h, read-out: EC50-IL-6, 24 h Incubation, Donor 2): 320 nM | EC50 ([7]; 24 h, read-out: EC50-IL-6, 24 h Incubation, Donor 3): 290 nM | EC50 ([7]; 24 h, read-out: EC50-IL-10, 24 h Incubation, Donor 1): 1290 nM | EC50 ([7]; 24 h, read-out: EC50-IL-10, 24 h Incubation, Donor 2): 860 nM | EC50 ([7]; 24 h, read-out: EC50-IL-10, 24 h Incubation, Donor 3): 2280 nM | EC50 ([7]; 24 h, whole blood, read-out: EC50-IL-12p40, 24 h Incubation, Donor 1): 2870 nM | EC50 ([7]; 24 h, whole blood, read-out: EC50-IL-12p40, 24 h Incubation, Donor 2): 2740 nM | EC50 ([7]; 24 h, whole blood, read-out: EC50-IL-12p40, 24 h Incubation, Donor 3): 4030 nM | local side effects [8]: No local side effects | Intracellular Concentration % of total ([9]; Incubation 1 hours): 5.50 % of total | Intracellular Concentration % of total ([9]; Incubation 6 hours): 4.27 % of total | Intracellular Concentration % of total ([9]; Incubation 16 hours): 1.53 % of total | degradation ([10]; T>25° C. and in the presence of light): rapid degradation | degradation of solid samples ([10]; batch CH730/16/8g, solid): almost completely degraded after few days | stability ([10]; room temperature and/or in the presence of light): not a stable compound

COCCOc1nc(N)c2[nH]c(=O)n(Cc3ccc(C(=O)O)cc3)c2n1 [Free pharmacophore, reference compound]
EC50 ([3]; read-out: EC 50 TNF-alpha): 707 nM

CC(C)Cn1cnc2c(N)nc3ccccc3c21 [Imiquimod, reference compound]
potency as TLR7 agonist [3]: weakest induction of IL-6 and TNF-alpha | IL-6 induction [11]: only active in inducing IL-6 at the highest concentration (10 uM) | CD40 expression on B cells (MFI, words) [12]: increased expression in all three donors | CD80 expression in mDCs (MFI, words) [13]: weak expression of CD80 in donor 1 and 2 | serum IL-12 [14]: elevated levels of IL-12 | serum IL-6 and TNF-alpha [15]: under the detection levels | cell numbers, real-time cell analysis [16]: reduced cell numbers | toxicity ([17]; intravesical, day 2 and 5): No signs of toxicity | Number of rat bladders Tumor free ([17]; of 14 per group): 5 | Number of rat bladders with pT2 Tumor ([17]; of 14 per group): 9
